Results reported in US12486287B2, “Solid forms of a promoter of spinogenesis” (Spinogenix, Inc., priority 2019, dated 2025).

Columns and labels:
[1] = Dynamic vapor sorption (DVS); assay type: physicochemical
Experimental: DVS was measured via a SMS (Surface Measurement Systems) DVS Intrinsic. The relative humidity at 25° C. were calibrated against deliquescence point of LiCl, Mg(NO3)2 and KCl.
Compound I starting material was the delivered sample. The starting material was characterized by XRPD, thermo-gravimetric analysis (TGA), differential scanning calorimetry (DSC), PLM and dynamic vapor sorption (DVS).

[2] = Solid state stability evaluation (XRPD, PLM, HPLC purity after storage); assay type: physicochemical; conditions: for Purity (Area %): HPLC; for Form Change: XRPD
Experimental: Agilent 1260 HPLC with VWD detector was utilized and detailed chromatographic conditions for purity analysis are listed ill Table 1-4.
The solid state stability of Compound I was evaluated under conditions of 30° C./65% RH (open dish and closed container) and 40° C./75% RH (open dish and closed container) for 4 weeks. The detailed procedures utilized for stability evaluation are listed: 1) Weighed about 10 mg of Compound I starting material into 3-mL glass vials; 2) For the open dish conditions, covered the vials with Parafilm® and poked 6 holes. For the closed conditions, sealed the vials with caps and kept the vials in the corresponding conditions, respectively; For the condition of 40° C./75% RH, placed the vials in the stability chamber of 40° C./75% RH; For the condition of 30° C./65% RH, placed the vials in the airtight atmosphere generated by saturated aqueous potassium iodide solution in 30° C. bio-chemical; 4) Samples taken for XRPD, PLM, and HPLC purity after 3 days, 1 week, 2 weeks and 4 weeks.
Solid state stability evaluation of Compound I Form I starting material was performed under conditions of 30° C./65% RH (closed and open) and 40° C./75% RH (closed and open). X-ray powder diffraction (XRPD), polarizing microscope (PLM) and HPLC purity were characterized at 4 sampling points (3 days, 1 week, 2 weeks, 4 weeks).
For the single crystal structure determination, 83 single crystal growth experiments were performed by different methods including slow evaporation, liquid vapor diffusion, slow cooling, heating-cooling and solvent-thermal synthesis. The stability evaluation experiments in 40° C./75% RH condition were performed using stability chamber, while the 30° C./65% RH condition was set up by saturated aqueous potassium iodide solution in 30° C. bio-chemical incubator.

[3] = 30° C./65% RH, closed container, 1 week
[4] = 30° C./65% RH, closed container, 2 weeks
[5] = 30° C./65% RH, closed container, 4 weeks
[6] = 30° C./65% RH, closed container, 3 days
[7] = 30° C./65% RH, open dish, 1 week
[8] = 30° C./65% RH, open dish, 2 weeks
[9] = 30° C./65% RH, open dish, 4 weeks
[10] = 30° C./65% RH, open dish, 3 days
[11] = 40° C./75% RH, closed container, 1 week
[12] = 40° C./75% RH, closed container, 2 weeks
[13] = 40° C./75% RH, closed container, 4 weeks
[14] = 40° C./75% RH, closed container, 3 days
[15] = 40° C./75% RH, open dish, 1 week
[16] = 40° C./75% RH, open dish, 2 weeks
[17] = 40° C./75% RH, open dish, 4 weeks
[18] = 40° C./75% RH, open dish, 3 days

For `OCCOCCOCCOCCOc1ccc(-c2nc3ccccc3s2)cc1` [Compound I Form I, 2-(2-(2-(2-(4-(benzo[d]thiazol-2-yl)phenoxy)ethoxy)ethoxy)ethoxy)ethan-1-ol], which “Form change after DVS test (XRPD)” value ([1]; 25° C., 0% RH-95% RH-0% RH) is on record?
Its value is “No form change was observed”.

What about the “Water uptake (DVS)” value ([1]; 25° C./80% RH) of the same molecule?
The value was 0.64%.

What about the “Water uptake (DVS)” value ([1]; 25° C./95% RH) of the same molecule?
The value was 21.43%.

What about the “HPLC purity decrease after storage” value ([2]; 30° C./65% RH and 40° C./75% RH, open and closed, 4 weeks) of the same molecule?
The value was “No form change and significant HPLC purity decrease were observed”.

And the “Form change after storage (XRPD)” value ([2]; 30° C./65% RH and 40° C./75% RH, open and closed, up to 4 weeks)?
Its value is “No form change”.

And the “Purity/Initial (%)” value [2, 3]?
Its value is 100.0%.

What about the “Purity (Area %)” value [2, 3] of the same molecule?
Its value is 99.66 Area %.

What about the “Form Change” value [2, 3] of the same molecule?
The value was “No”.

And the “Purity/Initial (%)” value [2, 4]?
Its value is 100.0%.

What about the “Purity (Area %)” value [2, 4] of the same molecule?
Its value is 99.64 Area %.

And the “Form Change” value [2, 4]?
Its value is “No”.

And the “Purity/Initial (%)” value [2, 5]?
Its value is 100.0%.

What about the “Purity (Area %)” value [2, 5] of the same molecule?
Its value is 99.66 Area %.

And the “Form Change” value [2, 5]?
The value was “No”.

What about the “Purity/Initial (%)” value [2, 6] of the same molecule?
Its value is 100.0%.

And the “Purity (Area %)” value [2, 6]?
Its value is 99.68 Area %.

What about the “Form Change” value [2, 6] of the same molecule?
The value was “No”.

What about the “Purity/Initial (%)” value [2, 7] of the same molecule?
Its value is 100.0%.

And the “Purity (Area %)” value [2, 7]?
Its value is 99.66 Area %.

What about the “Form Change” value [2, 7] of the same molecule?
The value was “No”.

What about the “Purity/Initial (%)” value [2, 8] of the same molecule?
Its value is 100.0%.

What about the “Purity (Area %)” value [2, 8] of the same molecule?
The value was 99.63 Area %.

What about the “Form Change” value [2, 8] of the same molecule?
Its value is “No”.

What about the “Purity/Initial (%)” value [2, 9] of the same molecule?
Its value is 100.0%.

And the “Purity (Area %)” value [2, 9]?
Its value is 99.66 Area %.

What about the “Form Change” value [2, 9] of the same molecule?
Its value is “No”.

What about the “Purity/Initial (%)” value [2, 10] of the same molecule?
Its value is 100.0%.

What about the “Purity (Area %)” value [2, 10] of the same molecule?
The value was 99.69 Area %.

What about the “Form Change” value [2, 10] of the same molecule?
Its value is “No”.

What about the “Purity/Initial (%)” value [2, 11] of the same molecule?
Its value is 100.0%.

What about the “Purity (Area %)” value [2, 11] of the same molecule?
Its value is 99.66 Area %.

And the “Form Change” value [2, 11]?
The value was “No”.

What about the “Purity/Initial (%)” value [2, 12] of the same molecule?
Its value is 99.8%.

What about the “Purity (Area %)” value [2, 12] of the same molecule?
The value was 99.45 Area %.

And the “Form Change” value [2, 12]?
Its value is “No”.

And the “Purity/Initial (%)” value [2, 13]?
The value was 100.0%.

And the “Purity (Area %)” value [2, 13]?
The value was 99.65 Area %.

What about the “Form Change” value [2, 13] of the same molecule?
Its value is “No”.

What about the “Purity/Initial (%)” value [2, 14] of the same molecule?
Its value is 100.1%.

What about the “Purity (Area %)” value [2, 14] of the same molecule?
The value was 99.76 Area %.

What about the “Form Change” value [2, 14] of the same molecule?
The value was “No”.

What about the “Purity/Initial (%)” value [2, 15] of the same molecule?
The value was 100.0%.

And the “Purity (Area %)” value [2, 15]?
Its value is 99.66 Area %.

And the “Form Change” value [2, 15]?
Its value is “No”.

And the “Purity/Initial (%)” value [2, 16]?
Its value is 100.0%.

What about the “Purity (Area %)” value [2, 16] of the same molecule?
Its value is 99.63 Area %.

What about the “Form Change” value [2, 16] of the same molecule?
The value was “No”.

What about the “Purity/Initial (%)” value [2, 17] of the same molecule?
The value was 100.0%.

What about the “Purity (Area %)” value [2, 17] of the same molecule?
Its value is 99.65 Area %.

And the “Form Change” value [2, 17]?
The value was “No”.

What about the “Purity/Initial (%)” value [2, 18] of the same molecule?
Its value is 99.9%.

And the “Purity (Area %)” value [2, 18]?
The value was 99.61 Area %.

What about the “Form Change” value [2, 18] of the same molecule?
The value was “No”.
